Numbering of substitutions follows the chain as printed. Like-named read-outs stand apart in the source and are kept apart here.
Legend:
[1] = molecular target: T1, helix H site mutant ZPI (K260A/R263A/R305A/K308A/R310A) (Homo sapiens, UniProt Q9UK55, K281A/K329A/R284A/R326A/R331A); assay: Direct heparin binding titrations monitored by intrinsic protein fluorescence quenching; settings: 200 nM helix H site mutant ZPI
T1 construct: made in house; host or cells: Escherichia coli
T1 sequence (Q9UK55 22-444 K281A/R284A/R326A/K329A/R331A): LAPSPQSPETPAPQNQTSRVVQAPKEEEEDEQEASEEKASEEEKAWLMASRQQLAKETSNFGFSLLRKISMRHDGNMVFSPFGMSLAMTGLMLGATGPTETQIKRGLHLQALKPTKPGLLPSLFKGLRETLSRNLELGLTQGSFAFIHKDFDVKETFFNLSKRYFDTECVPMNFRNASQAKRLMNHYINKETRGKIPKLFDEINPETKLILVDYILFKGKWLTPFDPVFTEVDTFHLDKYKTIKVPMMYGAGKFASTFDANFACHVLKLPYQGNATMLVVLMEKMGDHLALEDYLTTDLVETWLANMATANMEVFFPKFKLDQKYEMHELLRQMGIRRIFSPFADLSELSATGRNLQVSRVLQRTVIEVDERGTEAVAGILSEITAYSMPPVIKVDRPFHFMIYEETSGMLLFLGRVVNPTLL
Description: (§1) Fluorescence emission spectra of NBD-ZPI (50–100 nM) were measured in the absence or the presence of PZ and heparin in 20 mM Tris buffer (pH 7.4), 0.2 M NaCl, 0.1% PEG 8000, 1 mg/ml bovine serum albumin (BSA), and 2.5 mM CaCl2 with an SLM 8000 spectrofluorometer with excitation at 480 nm over the emission range of 500 to 600 nm. Intrinsic protein fluorescence of WT and mutant ZPIs (200 nM to 1 μM) was measured in the same buffer without BSA, with excitation at 280 nm over the emission range of 300 to 400 nm. Emission was monitored in 5-nm steps with 5 to 10 s of integrations per step. Spectra were obtained in triplicate and averaged. Buffer, buffer plus PZ, or buffer plus heparin background spectra were subtracted, and dilution corrections were made for added PZ or heparin (<10%). Direct equilibrium binding of heparin to ZPI was measured by titrations of unlabeled WT and variant ZPIs (0.2–1 μM) with heparin monitored by the quenching of intrinsic protein fluorescence accompanying heparin binding at excitation and emission wavelengths of 280 and 340 nm, respectively. Titrations were computer fit by the aforementioned quadratic binding equation with [H]o replacing [PZ]o and KD,H replacing KD,PZapp.

[2] = molecular target: T2, helix C site mutant ZPI (K104A/R105A/K113A/K116A) (Homo sapiens, UniProt Q9UK55, K125A/K134A/K137A/R126A); assay: as above; settings: 1 μM helix C site mutant ZPI; quenching end point fixed at WT
T2 construct: made in house; host or cells: Escherichia coli
T2 sequence (Q9UK55 22-444 K125A/R126A/K134A/K137A): T1 sequence (Q9UK55 22-444 K281A/R284A/R326A/K329A/R331A) with K104A, R105A, K113A, K116A, A260K, A263R, A305R, A308K, A310R
Description: as §1

WT ZPI = molecular target: T3, WT ZPI (Homo sapiens, UniProt Q9UK55); assay: as above
T3 construct: made in house; host or cells: Escherichia coli
T3 sequence (Q9UK55 22-444): T1 sequence (Q9UK55 22-444 K281A/R284A/R326A/K329A/R331A) with A260K, A263R, A305R, A308K, A310R
Description: as §1

NBD-ZPI–PZ interactions = molecular target: T4, NBD-ZPI–PZ interactions (Homo sapiens, UniProt Q9UK55, C190A/C285S/K260C); assay: Titrations of NBD-ZPI with PZ in absence and presence of fixed levels of heparin; format: binding; settings: read-out: ZPI–heparin KD,H (predicted)
T4 construct: made in house; host or cells: Escherichia coli
T4 sequence (Q9UK55 22-444 C190A/K260C/C285S): T1 sequence (Q9UK55 22-444 K281A/R284A/R326A/K329A/R331A) with C169A, K239C, A260K, A263R, C264S, A305R, A308K, A310R
Description: The effect of heparin on PZ binding to ZPI was measured by titrations of 50 nM NBD-ZPI with PZ in the absence and presence of different fixed levels of heparins of various lengths in the higher ionic strength buffer used for emission spectra. Titrations were monitored from the enhancement of NBD-ZPI fluorescence that signals PZ binding. These titrations were fit by the quadratic binding equation, ΔFobs/F0=ΔFmax/F0×[ZPI]0+[PZ]0+KD,PZapp−([ZPI]0+[PZ]0+KD,PZapp)^2−4×[ZPI]0×[PZ]0/2×[ZPI]0 where ΔFobs/Fo and ΔFmax/Fo are the observed and maximal fluorescence changes after addition of PZ expressed relative to the initial free NBD-ZPI fluorescence, respectively, and KD,PZapp = KD,PZ × (1 + [H]o/KD,H) is the apparent dissociation constant for the ZPI–PZ interaction in the absence or presence of heparin. The fitted parameters were KD,PZapp and ΔFmax/Fo.

Kd [1]: 142 ± 42 µM
Kd [2]: 1900 ± 200 µM
Kd (WT ZPI; 200 nM WT ZPI, 0.2 M NaCl buffer, pH 7.4, 25 °C): 123 ± 23 µM
maximal quenching of protein fluorescence (WT ZPI; fit of titration by quadratic binding equation): −15 ± 1%
quenching of the protein fluorescence emission spectrum (WT ZPI; near saturating levels of heparin (400 μM H5 or 4 μM H72)): 15 to 20%
Kd (NBD-ZPI–PZ interactions; calculated from KD,PZapp at 211 μM heparin): 53 µM
Kd (NBD-ZPI–PZ interactions; calculated from KD,PZapp at 423 μM heparin): 44 µM
Structure (SMILES): CO[C@H]1O[C@H](COS(=O)(=O)O)[C@@H](O[C@@H]2O[C@@H](C(=O)O)[C@@H](O[C@H]3O[C@H](COS(=O)(=O)O)[C@@H](O[C@@H]4O[C@H](C(=O)O)[C@@H](O[C@H]5O[C@H](COS(=O)(=O)O)[C@@H](O)[C@H](O)[C@H]5NS(=O)(=O)O)[C@H](O)[C@H]4O)[C@H](OS(=O)(=O)O)[C@H]3NS(=O)(=O)O)[C@H](O)[C@H]2OS(=O)(=O)O)[C@H](O)[C@H]1NS(=O)(=O)O [H5, fondaparinux]

— publication PMC9190012, “Heparin activation of protein Z-dependent protease inhibitor (ZPI) allosterically blocks protein Z activation through an extended heparin-binding site” (The Journal of Biological Chemistry, 2022)
